Legend:
Test in all cases: combination Emax (second highest fraction inhibited in the dose matrix, 72 h); higher = more inhibition; extreme values may be limits of the assay
[1] = tested on: MS751 (Cervical Carcinoma)
Outline: (§1)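 Cell lines in DMEM/F12 or RPMI with 10% FBS were plated in 1536-well plates, held 24 hours at 37°C, 5% CO2, then given two-drug dose matrices for 72 hours (DMSO typically 0.2%). Viability was read by CellTiter-Glo 2.0 luminescence and scaled as inhibition from 0 (vehicle wells) to 1 (blank wells). Combination Emax is the second-highest inhibition in the matrix; Bliss excess is observed combination effect minus expected EA + EB − EA·EB, EA and EB being single-agent effects.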

[2] = tested on: PANC-08-13 (Pancreatic Carcinoma)
Outline: as §1

[3] = tested on: ES1 (Ewing's Sarcoma)
Outline: as §1

[4] = tested on: TC-71 (Ewing's Sarcoma)
Outline: as §1

[5] = tested on: K-562 (Chronic Myelogenous Leukemia)
Outline: as §1

[6] = tested on: NCI-H1792 (Lung Adenocarcinoma)
Outline: as §1

[7] = tested on: KCL-22 (Chronic Myelogenous Leukemia)
Outline: as §1

[8] = tested on: CHP-212 (Neuroblastoma)
Outline: as §1

[9] = tested on: HDQ-P1 (Breast Carcinoma)
Outline: as §1

[10] = tested on: MKN28 (Gastric Carcinoma)
Outline: as §1

[11] = tested on: SR (Other Blood Carcinomas)
Outline: as §1

[12] = tested on: SU-DHL-8 (B-Cell Non-Hodgkin's Lymphoma)
Outline: as §1

[13] = tested on: NCI-H2818 (Mesothelioma)
Outline: as §1

[14] = tested on: WM-115 (Melanoma)
Outline: as §1

[15] = tested on: DND-41 (T-Lymphoblastic Leukemia)
Outline: as §1

[16] = tested on: KARPAS-45 (T-Lymphoblastic Leukemia)
Outline: as §1

[17] = tested on: GR-ST (B-Lymphoblastic Leukemia)
Outline: as §1

[18] = tested on: L-540 (Hodgkin's Lymphoma)
Outline: as §1

[19] = tested on: MFM-223 (Breast Carcinoma)
Outline: as §1

SMILES	combination Emax [1]	combination Emax [2]	combination Emax [3]	combination Emax [4]	combination Emax [5]	combination Emax [6]	combination Emax [7]	combination Emax [8]	combination Emax [9]	combination Emax [10]	combination Emax [11]	combination Emax [12]	combination Emax [13]	combination Emax [14]	combination Emax [15]	combination Emax [16]	combination Emax [17]	combination Emax [18]	combination Emax [19]
COc1nnc2ccc(N3CCC(c4ccc(OCCN5CCN(C)C(=O)[C@H]5C)cc4)CC3)nn12 [AZD5153] + C=CCn1c(=O)c2cnc(Nc3ccc(N4CCN(C)CC4)cc3)nc2n1-c1cccc(C(C)(C)O)n1 [AZD1775] (first compound max 1 µM, partner max 1 µM)	0.935	0.679	0.686	0.935	0.616	0.83	0.927	0.958	0.523	0.525	0.96	0.994	0.327	0.338	0.941	1	0.832	0.925	0.538
COc1nnc2ccc(N3CCC(c4ccc(OCCN5CCN(C)C(=O)[C@H]5C)cc4)CC3)nn12 [AZD5153] + CC1(C)CCC(CN2CCN(c3ccc(C(=O)NS(=O)(=O)c4ccc(NCC5CCOCC5)c([N+](=O)[O-])c4)c(Oc4cnc5[nH]ccc5c4)c3)CC2)=C(c2ccc(Cl)cc2)C1 [Venetoclax] (first compound max 1 µM, 7x7, partner max 1 µM)	0.702	0.625	0.482	0.657	0.437	0.676	0.666	0.885	0.325	0.446	0.749	0.663	0.268	0.365	0.835	1	0.788	0.755	0.305
COc1nnc2ccc(N3CCC(c4ccc(OCCN5CCN(C)C(=O)[C@H]5C)cc4)CC3)nn12 [AZD5153] + CCN(CCO)CCCOc1ccc2c(Nc3cc(CC(=O)Nc4cccc(F)c4)[nH]n3)ncnc2c1 [AZD2811] (first compound max 1 µM, 7x7, partner max 1 µM)	0.789	0.656	0.612	0.884	0.517	0.668	0.68	0.964	0.431	0.43	0.913	0.982	0.292	0.37	0.667	1	0.818	0.716	0.415
COc1nnc2ccc(N3CCC(c4ccc(OCCN5CCN(C)C(=O)[C@H]5C)cc4)CC3)nn12 [AZD5153] + C[C@@H]1COCCN1C2=NC(=NC(=C2)C3(CC3)[S@](=N)(=O)C)C4=C5C=CNC5=NC=C4 [AZD6738] (first compound max 1 µM, 7x7, partner max 10 µM)	0.911	0.831	0.918	0.997	0.821	0.805	0.978	0.967	0.571	0.51	0.937	0.996	0.281	0.481	0.979	1	0.846	0.913	0.734
COc1nnc2ccc(N3CCC(c4ccc(OCCN5CCN(C)C(=O)[C@H]5C)cc4)CC3)nn12 [AZD5153] + Cc1c2c(nn1C)CSCc1cc(n(C)n1)CSc1cc(c3ccccc3c1)OCCCc1c(C(=O)O)n(C)c3c-2c(Cl)ccc13 [AZD5991] (first compound max 1 µM, 7x7, partner max 1 µM)	0.919	0.825	0.955	0.996	0.5	0.877	0.902	1	0.412	0.462	0.968	0.998	0.441	0.707	0.845	1	0.798	1	0.587
COc1nnc2ccc(N3CCC(c4ccc(OCCN5CCN(C)C(=O)[C@H]5C)cc4)CC3)nn12 [AZD5153] + Cn1cnc2c(F)c(Nc3ccc(Br)cc3Cl)c(C(=O)NOCCO)cc21 [Selumetinib] (first compound max 1 µM, 7x7, partner max 10 µM)	0.849	0.805	0.458	0.762	0.469	0.78	0.957	0.989	0.431	0.416	0.675	0.955	0.27	0.832	0.893	1	0.782	0.628	0.507
NC1(C(=O)N[C@@H](CCO)c2ccc(Cl)cc2)CCN(c2ncnc3[nH]ccc23)CC1 [Capivasertib] + CC(=O)c1c(C)c2cnc(Nc3ccc(N4CCNCC4)cn3)nc2n(C2CCCC2)c1=O [Palbociclib] (first compound max 10 µM, 7x7, partner max 10 µM)	0.236	0.308	0.765	0.511	0.257	0.553	0.612	0.556	0.302	0.155	0.844	0.571	0.316	0.574	0.462	0.982	0.75	0.214	0.882
NC1(C(=O)N[C@@H](CCO)c2ccc(Cl)cc2)CCN(c2ncnc3[nH]ccc23)CC1 [Capivasertib] + CC(C)n1c(=O)n(C)c2cnc3cc(F)c(-c4ccc(OCCCN5CCCCC5)nc4)cc3c21 [AZD1390] (first compound max 10 µM, 7x7, partner max 0.3 µM)	0.19	0.242	0.452	0.263	0.33	0.179	0.266	0.262	0.215	0.145	0.361	0.107	0.224	0.565	0.165	0.581	0.611	0.265	0.864
NC1(C(=O)N[C@@H](CCO)c2ccc(Cl)cc2)CCN(c2ncnc3[nH]ccc23)CC1 [Capivasertib] + CCN(CCO)CCCOc1ccc2c(Nc3cc(CC(=O)Nc4cccc(F)c4)[nH]n3)ncnc2c1 [AZD2811] (first compound max 10 µM, 7x7, partner max 1 µM)	0.632	0.329	0.905	0.854	0.245	0.34	0.472	0.749	0.321	0.206	0.957	0.324	0.294	0.583	0.224	0.979	0.702	0.361	0.918
NC1(C(=O)N[C@@H](CCO)c2ccc(Cl)cc2)CCN(c2ncnc3[nH]ccc23)CC1 [Capivasertib] + COc1nnc2ccc(N3CCC(c4ccc(OCCN5CCN(C)C(=O)[C@H]5C)cc4)CC3)nn12 [AZD5153] (first compound max 10 µM, 7x7, partner max 1 µM)	0.794	0.668	0.694	0.797	0.528	0.537	0.792	0.932	0.416	0.488	0.769	0.899	0.238	0.778	0.679	1	0.832	0.605	0.852
NC1(C(=O)N[C@@H](CCO)c2ccc(Cl)cc2)CCN(c2ncnc3[nH]ccc23)CC1 [Capivasertib] + C[C@@H]1COCCN1C2=NC(=NC(=C2)C3(CC3)[S@](=N)(=O)C)C4=C5C=CNC5=NC=C4 [AZD6738] (first compound max 10 µM, 7x7, partner max 10 µM)	0.498	0.478	0.972	0.959	0.866	0.767	0.979	0.829	0.422	0.296	0.954	0.964	0.437	0.628	0.886	0.854	0.809	0.94	0.888
CC(=O)c1c(C)c2cnc(Nc3ccc(N4CCNCC4)cn3)nc2n(C2CCCC2)c1=O [Palbociclib] + CN(CC[C@H](CSC1=CC=CC=C1)NC2=C(C=C(C=C2)S(=O)(=O)NC(=O)C3=CC=C(C=C3)N4CCC(CC4)[C@H](C5=CC=CC=C5C6=CC=C(C=C6)Cl)O)S(=O)(=O)C(F)(F)F)CCO [AZD4320] (first compound max 10 µM, 7x7, partner max 1 µM)	0.159	0.384	–	0.828	–	–	0.82	0.829	0.677	–	–	1	–	–	–	1	–	–	0.406
C[C@@H](c1ccc2nccn2c1)n1nnc2ncc(-c3cnn(C)c3)nc21 [Savolitinib] + CN(CC[C@H](CSC1=CC=CC=C1)NC2=C(C=C(C=C2)S(=O)(=O)NC(=O)C3=CC=C(C=C3)N4CCC(CC4)[C@H](C5=CC=CC=C5C6=CC=C(C=C6)Cl)O)S(=O)(=O)C(F)(F)F)CCO [AZD4320] (first compound max 1 µM, 7x7, partner max 1 µM)	0.184	0.394	–	0.585	–	–	0.268	0.178	0.591	–	–	0.932	–	–	–	0.976	–	–	0.225
